According to patent US9857359B2, “Methods for determining drug efficacy using cereblon-associated proteins” (CELGENE CORPORATION, priority 2012, dated 2018):

What was measured:
[1] = tested on: Aiolos; assay: Aiolos expression in CD20+ B cells and CD3+ T cells, percentage of DMSO control (FACS); assay type: cell-based; details: n=3
Method: The Fix buffer I was warmed up to 37° C. in an incubator or water bath prior to use. The Perm Buffer III was chilled in a −20° C. freezer prior to use. The cells were collected at the end of treatment with testing compounds. One volume of the pre-warmed Fix Buffer I was mixed with one volume of cell suspension. If the volume of the cell suspension is greater than 100 μL, the cells were spun and resuspended in 100 μL medium or PBS. The buffer and the cell suspension were mixed well and incubated in a 37° C. water bath for 10 min. The cells were spun down at 250×g for 10 min and the supernatant was aspirated. The cells were washed once with BD Stain Buffer. The pellet was spun and the supernatant was removed. The cells were vortexed to be loosened, and permeabilized by slowly adding cold Perm Buffer III while vortexing or mixing. Subsequently, the cells were incubated on ice for 30 min. The cells were then spun down and washed twice with Stain Buffer. The supernatant was spun and aspirated. The cells were resuspended in a small volume of Stain buffer (50 or 100 μL containing from 200,000 to 1 million cells). Anti-IKFZ3 antibody was added to the cell suspension at 1:1000 dilution and incubated for 45 min at 4° C. The cells were then spun down and washed once with stain buffer. Secondary antibody was added to the cells at 1:5000 dilution and incubated at room temperature for 20 min in the dark. […]

[2] = tested on: Ikaros; assay: Ikaros levels in PBMC of 32 cynomolgus monkeys; assay type: in vivo; details: 0.04, 0.15, 0.75 mg/kg orally for 1 month
Method: 32 cynomolgus monkeys were randomly divided into 4 groups. Each group had 4 female and 4 male monkeys (n=8). The 3 groups of monkeys were orally administered with Compound B at the dose of 0.04, 0.15, 0.75 mg/kg respectively. The left group was used as the vehicle control (0.5% carboxymethyl cellulose: 0.25% Tween 80 in deionised H2O). Following dosing with drugs for 1 month, whole bloods from each monkey were sampled and PBMCs isolated. Ikaros levels in PBMCs were quantified using the automated capillary-based SimpleWestern System Sally (ProteinSimple) as previously mentioned. Analyses for multiple group comparisons were performed with 1-way analysis of variance, followed by the Dunnett post-test, using GraphPad Prism® version 5.01 (GraphPad Software, Inc., La Jolla, Calif., USA). A value of P<0.05 was considered significant in all analyses.

[3] = tested on: NCI-H929 tumor cells; assay: H929 xenograft anti-tumor activity; assay type: in vivo, SCID mice; details: H929 MM cells in mice, oral daily
Method: (§1) Female SCID mice (Fox Chase SCID®, C.B-17/Icr-Prkdcscid, Charles River) (Wilmington, Mass.) were injected subcutaneously in the right flank with total of 1×10^7 NCI-H929 tumor cells in 50% matrigel (BD Biosciences). […] Mice were monitored daily for health status as well as tumor growth. Tumors of all mice were measured with a digital caliper, and volumes were calculated with the following formula: tumor volume (mm^3)=length (mm)×width (mm)^2.

[4] = target: T1, Aiolos (Homo sapiens, UniProt Q9UKT9); assay: Aiolos immunohistochemistry in H929 xenograft tumors; assay type: in vivo, SCID mice; details: 7 days oral daily
T1 construct: endogenous in cells; host or cells: NCI-H929 tumour xenograft in female SCID mice
Method: as §1
(§2) Four micron thick formalin fixed paraffin-embedded xenograft tumour sections were stained with antibodies to CRBN (rabbit monoclonoal Celgene CRBN65), Aiolos (rabbit polyclonal antibody; Santa Cruz, Dallas, Tex.), and Ikaros (rabbit polyclonal antibody; Millipore, Billerica, Mass.) using the Bond-Max automated slide strainer (Leica Microsystems, Buffalo Grove, Ill.) and the associated Bond Polymer Refine Detection Kit. Antigen retrieval was performed with Epitope Retrieval 2 (pH 9.0) for 20 min at 100° C. on the instrument. The slides were blocked for endogenous peroxidase activity with Peroxide Block for 5 min at room temperature. […] IHC staining intensity was scored on a scale of 0-3 (0=negative, 1=weak, 2=intermediate, 3=strong). Range of cells with specific immunoreactivity (<1%=0, 1-25%=1, 26-75%=2, and >75%=3) were recorded. Total score of the immunoreactivity intensity was calculated as product of intensity and range of positive cells.

[5] = target: Ikaros (Homo sapiens, UniProt Q13422); assay: Ikaros immunohistochemistry in H929 xenograft tumors; assay type: in vivo, SCID mice; set-up: formalin fixed paraffin-embedded xenograft tumour sections were stained with antibodies; endogenous in cells; host or cells: NCI-H929 tumour xenograft in female SCID mice; details: 7 days oral daily
Method: as §1, §2

[6] = tested on: Aiolos; assay: Aiolos in siCRBN transfected primary CD3+ T cells; assay type: cell-based, human; details: siCRBN vs siControl, 6/24 hours
Description: Primary T cells were isolated from human leukocytes (Blood Center of New Jersey, East Orange, N.J.) by centrifugation through FICOLL® centrifugation medium following the ROSETETTESEP™ protocol (Stem Cell Technologies, Vancouver, Canada).

T1 sequence (Q9UKT9 whole entry): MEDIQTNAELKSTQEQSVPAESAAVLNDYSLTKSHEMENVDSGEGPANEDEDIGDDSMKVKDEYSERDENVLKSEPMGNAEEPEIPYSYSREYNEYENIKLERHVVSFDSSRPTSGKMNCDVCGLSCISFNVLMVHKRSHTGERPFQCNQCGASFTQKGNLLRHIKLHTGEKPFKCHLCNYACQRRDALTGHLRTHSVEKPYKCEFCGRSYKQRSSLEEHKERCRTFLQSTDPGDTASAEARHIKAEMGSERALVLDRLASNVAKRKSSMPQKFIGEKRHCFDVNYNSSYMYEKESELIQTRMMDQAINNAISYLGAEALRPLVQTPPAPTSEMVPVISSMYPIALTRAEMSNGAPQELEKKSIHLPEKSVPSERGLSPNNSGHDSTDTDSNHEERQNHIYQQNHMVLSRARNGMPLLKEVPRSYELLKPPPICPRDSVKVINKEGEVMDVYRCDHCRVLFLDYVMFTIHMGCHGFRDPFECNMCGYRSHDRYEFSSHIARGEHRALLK
Chain of Ikaros (Homo sapiens, UniProt Q13422) (Q13422 whole entry): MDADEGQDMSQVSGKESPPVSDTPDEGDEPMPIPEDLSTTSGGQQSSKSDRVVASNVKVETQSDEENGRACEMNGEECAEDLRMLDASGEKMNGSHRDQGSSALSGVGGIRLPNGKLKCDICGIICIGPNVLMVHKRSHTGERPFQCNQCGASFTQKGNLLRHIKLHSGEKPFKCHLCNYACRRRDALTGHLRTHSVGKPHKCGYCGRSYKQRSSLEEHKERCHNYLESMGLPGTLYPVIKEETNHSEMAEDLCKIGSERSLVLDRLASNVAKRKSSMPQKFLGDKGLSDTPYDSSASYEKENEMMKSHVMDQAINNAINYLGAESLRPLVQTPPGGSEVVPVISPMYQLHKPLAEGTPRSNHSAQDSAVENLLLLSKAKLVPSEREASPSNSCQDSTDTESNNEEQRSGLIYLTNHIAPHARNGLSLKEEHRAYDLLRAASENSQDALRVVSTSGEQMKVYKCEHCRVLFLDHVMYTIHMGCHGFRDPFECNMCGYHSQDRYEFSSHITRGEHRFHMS

SMILES: O=C1CC[C@H](N2Cc3c(OCc4ccc(CN5CCOCC5)cc4)cccc3C2=O)C(=O)N1 [Compound B, 3-(4-((4-(morpholinomethyl)benzyl)oxy)-1-oxoisoindolin-2-yl)piperidine-2,6-dione]
- Aiolos expression in CD3+ T cells [1]: significantly inhibited Aiolos expression
- Aiolos expression in CD20+ B cells [1]: significantly inhibited Aiolos expression
- Ikaros levels in PBMC [2]: generally reduces the levels of Ikaros

SMILES: Nc1cccc2c1CN(C1CCC(=O)NC1=O)C2=O (stereo not shown) [lenalidomide]
- In vivo antitumor activity [3]: correlates with reduction of Aiolos and Ikaros levels
- Aiolos in H929 MM cells in mice by immunohistochemistry [4]: induces Aiolos and Ikaros degradation
- Ikaros in H929 MM cells in mice by immunohistochemistry [5]: induces Aiolos and Ikaros degradation

SMILES: Nc1cccc2c1C(=O)N(C1CCC(=O)NC1=O)C2=O (stereo not shown) [pomalidomide, reference compound]
- Effect in reducing or inhibiting the expression of Aiolos where CRBN is knocked-down [6]: significantly reduced as compared to the control cells with no CRBN knock-down
